This is an account of results in ChEMBL document CHEMBL4020739, “Investigation of the structural requirements of K-Ras(G12D) selective inhibitory peptide KRpep-2d using alanine scans and cysteine bridging” (Bioorg Med Chem Lett, 2017).

SMILES strings stand for the structures. Peptide text beside a SMILES is read from it.

Experiment [1] addresses GTPase KRas (Homo sapiens, UniProt P01116). In words: Inhibition of biotinylated wild-type K-Ras (unknown origin) assessed as inhibition of human SOS1 (564 to 1049 residues)-mediated BODIPY-GDP-GTP exchange after 1 hr by TR-FRET assay. Background: TR-FRET usually uses a lanthanide donor and a delayed reading to cut background.
The target in experiment [2] is GTPase KRas (Homo sapiens, UniProt P01116, G12C). Kind of experiment: Inhibition of biotinylated K-Ras G12C mutant (unknown origin) assessed as reduction in SOS1 (564 to 1049 residues)-mediated BODIPY-GDP-GTP exchange after 1 hr by TR-FRET assay.
For experiment [3], the target named is T1, GTPase KRas (Homo sapiens, UniProt P01116, G12D). In words: Inhibition of biotinylated K-Ras G12D mutant (unknown origin) assessed as reduction in SOS1 (564 to 1049 residues)-mediated BODIPY-GDP-GTP exchange after 1 hr by TR-FRET assay.
Experiment [4] deals with T1, GTPase KRas. Kind of experiment: Inhibition of biotinylated K-Ras G12D mutant (unknown origin) assessed as reduction in SOS1 (564 to 1049 residues)-mediated BODIPY-GDP-GTP exchange after 1 hr in presence of DTT by TR-FRET assay.
For experiment [5], the species on record is Homo sapiens. Kind of experiment: Selectivity ratio of IC50 for inhibition of biotinylated wild type K-Ras (unknown origin) to IC50 for inhibition of biotinylated K-Ras G12D mutant (unknown origin).
The species named for experiment [6] is Homo sapiens. In words: Selectivity ratio of IC50 for inhibition of biotinylated K-Ras G12C mutant (unknown origin) to IC50 for inhibition of biotinylated K-Ras G12D mutant (unknown origin).

In the case of `CC[C@H](C)[C@@H]1NC(=O)[C@H](Cc2ccc(O)cc2)NC(=O)[C@H](CC(C)C)NC(=O)[C@@H]2CCCN2C(=O)[C@@H](NC(C)=O)CSSC[C@@H](C(N)=O)NC(=O)[C@H](C(C)C)NC(=O)[C@@H]2CCCN2C(=O)[C@H](CC(=O)O)NC(=O)[C@H](Cc2ccc(O)cc2)NC(=O)[C@H](CO)NC1=O` (HELM PEPTIDE1{[ac].C.P.L.Y.I.S.Y.D.P.V.C.[am]}$PEPTIDE1,PEPTIDE1,2:R3-12:R3$$$V2.0), the IC50 on GTPase KRas [1] was 142 nM; at GTPase KRas [2], 82 nM; at GTPase KRas [3], 11 nM; on GTPase KRas [4] it was 9770 nM. In addition, the results for the Ratio IC50 in the experiment filed under Homo sapiens [5] and in the experiment filed under Homo sapiens [6] were 13 and 7, respectively.

As for `CC[C@H](C)[C@@H]1NC(=O)[C@H](Cc2ccc(O)cc2)NC(=O)[C@H](CC(C)C)NC(=O)[C@H](C)NC(=O)[C@@H](NC(=O)[C@H](CCCNC(=N)N)NC(=O)[C@H](CCCNC(=N)N)NC(=O)[C@H](CCCNC(=N)N)NC(=O)[C@H](CCCNC(=N)N)NC(C)=O)CSSC[C@@H](C(=O)N[C@@H](CCCNC(=N)N)C(=O)N[C@@H](CCCNC(=N)N)C(=O)N[C@@H](CCCNC(=N)N)C(=O)N[C@@H](CCCNC(=N)N)C(N)=O)NC(=O)[C@H](C(C)C)NC(=O)[C@@H]2CCCN2C(=O)[C@H](CC(=O)O)NC(=O)[C@H](Cc2ccc(O)cc2)NC(=O)[C@H](CO)NC1=O` (HELM PEPTIDE1{[ac].R.R.R.R.C.A.L.Y.I.S.Y.D.P.V.C.R.R.R.R.[am]}$PEPTIDE1,PEPTIDE1,6:R3-16:R3$$$V2.0), the IC50 stood at 763 nM at GTPase KRas [1], 113 nM at GTPase KRas [2], 19 nM at GTPase KRas [3] and 172 nM at GTPase KRas [4]. Besides, the Ratio IC50 in the experiment listed under Homo sapiens [5] is 41; in the experiment filed under Homo sapiens [6] it was 6.

As to `CC[C@H](C)[C@@H]1NC(=O)[C@H](Cc2ccc(O)cc2)NC(=O)[C@H](C)NC(=O)[C@@H]2CCCN2C(=O)[C@@H](NC(=O)[C@H](CCCNC(=N)N)NC(=O)[C@H](CCCNC(=N)N)NC(=O)[C@H](CCCNC(=N)N)NC(=O)[C@H](CCCNC(=N)N)NC(C)=O)CSSC[C@@H](C(=O)N[C@@H](CCCNC(=N)N)C(=O)N[C@@H](CCCNC(=N)N)C(=O)N[C@@H](CCCNC(=N)N)C(=O)N[C@@H](CCCNC(=N)N)C(N)=O)NC(=O)[C@H](C(C)C)NC(=O)[C@@H]2CCCN2C(=O)[C@H](CC(=O)O)NC(=O)[C@H](Cc2ccc(O)cc2)NC(=O)[C@H](CO)NC1=O` (HELM PEPTIDE1{[ac].R.R.R.R.C.P.A.Y.I.S.Y.D.P.V.C.R.R.R.R.[am]}$PEPTIDE1,PEPTIDE1,6:R3-16:R3$$$V2.0), the IC50 at GTPase KRas [1] was over 100000 nM; on GTPase KRas [2] it was 1630 nM; at GTPase KRas [3], 1790 nM; on GTPase KRas [4], over 100000 nM. Also, the figures for the Ratio IC50 in the experiment filed under Homo sapiens [5] and in the experiment filed under Homo sapiens [6] were over 56 and 1, respectively.

For `CC[C@H](C)[C@@H]1NC(=O)[C@H](C)NC(=O)[C@H](CC(C)C)NC(=O)[C@@H]2CCCN2C(=O)[C@@H](NC(=O)[C@H](CCCNC(=N)N)NC(=O)[C@H](CCCNC(=N)N)NC(=O)[C@H](CCCNC(=N)N)NC(=O)[C@H](CCCNC(=N)N)NC(C)=O)CSSC[C@@H](C(=O)N[C@@H](CCCNC(=N)N)C(=O)N[C@@H](CCCNC(=N)N)C(=O)N[C@@H](CCCNC(=N)N)C(=O)N[C@@H](CCCNC(=N)N)C(N)=O)NC(=O)[C@H](C(C)C)NC(=O)[C@@H]2CCCN2C(=O)[C@H](CC(=O)O)NC(=O)[C@H](Cc2ccc(O)cc2)NC(=O)[C@H](CO)NC1=O` (HELM PEPTIDE1{[ac].R.R.R.R.C.P.L.A.I.S.Y.D.P.V.C.R.R.R.R.[am]}$PEPTIDE1,PEPTIDE1,6:R3-16:R3$$$V2.0), the half-inhibitory concentration (IC50) on GTPase KRas [1] was determined as 1730 nM; on GTPase KRas [2], 53 nM; at GTPase KRas [3], 50 nM; on GTPase KRas [4], 192 nM. The Ratio IC50 was 34 in the experiment filed under Homo sapiens [5] and 1 in the experiment filed under Homo sapiens [6].

As to `CC(=O)N[C@@H](CCCNC(=N)N)C(=O)N[C@@H](CCCNC(=N)N)C(=O)N[C@@H](CCCNC(=N)N)C(=O)N[C@@H](CCCNC(=N)N)C(=O)N[C@H]1CSSC[C@@H](C(=O)N[C@@H](CCCNC(=N)N)C(=O)N[C@@H](CCCNC(=N)N)C(=O)N[C@@H](CCCNC(=N)N)C(=O)N[C@@H](CCCNC(=N)N)C(N)=O)NC(=O)[C@H](C(C)C)NC(=O)[C@@H]2CCCN2C(=O)[C@H](CC(=O)O)NC(=O)[C@H](Cc2ccc(O)cc2)NC(=O)[C@H](CO)NC(=O)[C@H](C)NC(=O)[C@H](Cc2ccc(O)cc2)NC(=O)[C@H](CC(C)C)NC(=O)[C@@H]2CCCN2C1=O` (HELM PEPTIDE1{[ac].R.R.R.R.C.P.L.Y.A.S.Y.D.P.V.C.R.R.R.R.[am]}$PEPTIDE1,PEPTIDE1,6:R3-16:R3$$$V2.0), the IC50 on GTPase KRas [1] came to 39300 nM; at GTPase KRas [2], 5190 nM; on GTPase KRas [3], 20600 nM; on GTPase KRas [4], 73500 nM. Further, the Ratio IC50 in the experiment listed under Homo sapiens [5] is 2; in the experiment listed under Homo sapiens [6], 0.3.

Turning to `CC[C@H](C)[C@@H]1NC(=O)[C@H](Cc2ccc(O)cc2)NC(=O)[C@H](CC(C)C)NC(=O)[C@@H]2CCCN2C(=O)[C@@H](NC(=O)[C@H](CCCNC(=N)N)NC(=O)[C@H](CCCNC(=N)N)NC(=O)[C@H](CCCNC(=N)N)NC(=O)[C@H](CCCNC(=N)N)NC(C)=O)CSSC[C@@H](C(=O)N[C@@H](CCCNC(=N)N)C(=O)N[C@@H](CCCNC(=N)N)C(=O)N[C@@H](CCCNC(=N)N)C(=O)N[C@@H](CCCNC(=N)N)C(N)=O)NC(=O)[C@H](C(C)C)NC(=O)[C@@H]2CCCN2C(=O)[C@H](CC(=O)O)NC(=O)[C@H](Cc2ccc(O)cc2)NC(=O)[C@H](C)NC1=O` (HELM PEPTIDE1{[ac].R.R.R.R.C.P.L.Y.I.A.Y.D.P.V.C.R.R.R.R.[am]}$PEPTIDE1,PEPTIDE1,6:R3-16:R3$$$V2.0), the 50% inhibitory concentration (IC50) on GTPase KRas [1] was determined as 764 nM; on GTPase KRas [2], 36 nM; on GTPase KRas [3], 6.3 nM; on GTPase KRas [4], 22 nM. In addition, the Ratio IC50 in the experiment filed under Homo sapiens [5] stood at 121; in the experiment filed under Homo sapiens [6], 6.

Turning to `CC[C@H](C)[C@@H]1NC(=O)[C@H](Cc2ccc(O)cc2)NC(=O)[C@H](CC(C)C)NC(=O)[C@@H]2CCCN2C(=O)[C@@H](NC(=O)[C@H](CCCNC(=N)N)NC(=O)[C@H](CCCNC(=N)N)NC(=O)[C@H](CCCNC(=N)N)NC(=O)[C@H](CCCNC(=N)N)NC(C)=O)CSSC[C@@H](C(=O)N[C@@H](CCCNC(=N)N)C(=O)N[C@@H](CCCNC(=N)N)C(=O)N[C@@H](CCCNC(=N)N)C(=O)N[C@@H](CCCNC(=N)N)C(N)=O)NC(=O)[C@H](C(C)C)NC(=O)[C@@H]2CCCN2C(=O)[C@H](CC(=O)O)NC(=O)[C@H](C)NC(=O)[C@H](CO)NC1=O` (HELM PEPTIDE1{[ac].R.R.R.R.C.P.L.Y.I.S.A.D.P.V.C.R.R.R.R.[am]}$PEPTIDE1,PEPTIDE1,6:R3-16:R3$$$V2.0), the IC50 at GTPase KRas [1] is 4190 nM; at GTPase KRas [2], 358 nM; at GTPase KRas [3] it was 64 nM; at GTPase KRas [4], 244 nM. Besides, the Ratio IC50 in the experiment listed under Homo sapiens [5] worked out at 65; in the experiment filed under Homo sapiens [6], 6.

For `CC[C@H](C)[C@@H]1NC(=O)[C@H](Cc2ccc(O)cc2)NC(=O)[C@H](CC(C)C)NC(=O)[C@@H]2CCCN2C(=O)[C@@H](NC(=O)[C@H](CCCNC(=N)N)NC(=O)[C@H](CCCNC(=N)N)NC(=O)[C@H](CCCNC(=N)N)NC(=O)[C@H](CCCNC(=N)N)NC(C)=O)CSSC[C@@H](C(=O)N[C@@H](CCCNC(=N)N)C(=O)N[C@@H](CCCNC(=N)N)C(=O)N[C@@H](CCCNC(=N)N)C(=O)N[C@@H](CCCNC(=N)N)C(N)=O)NC(=O)[C@H](C(C)C)NC(=O)[C@@H]2CCCN2C(=O)[C@H](C)NC(=O)[C@H](Cc2ccc(O)cc2)NC(=O)[C@H](CO)NC1=O` (HELM PEPTIDE1{[ac].R.R.R.R.C.P.L.Y.I.S.Y.A.P.V.C.R.R.R.R.[am]}$PEPTIDE1,PEPTIDE1,6:R3-16:R3$$$V2.0), the IC50 at GTPase KRas [1] was 65000 nM; on GTPase KRas [2], 975 nM; at GTPase KRas [3], 15400 nM; on GTPase KRas [4], over 100000 nM. Besides, the Ratio IC50 in the experiment filed under Homo sapiens [5] worked out at 4; in the experiment filed under Homo sapiens [6] it was 0.06.

On to `CC[C@H](C)[C@@H]1NC(=O)[C@H](Cc2ccc(O)cc2)NC(=O)[C@H](CC(C)C)NC(=O)[C@@H]2CCCN2C(=O)[C@@H](NC(=O)[C@H](CCCNC(=N)N)NC(=O)[C@H](CCCNC(=N)N)NC(=O)[C@H](CCCNC(=N)N)NC(=O)[C@H](CCCNC(=N)N)NC(C)=O)CSSC[C@@H](C(=O)N[C@@H](CCCNC(=N)N)C(=O)N[C@@H](CCCNC(=N)N)C(=O)N[C@@H](CCCNC(=N)N)C(=O)N[C@@H](CCCNC(=N)N)C(N)=O)NC(=O)[C@H](C(C)C)NC(=O)[C@H](C)NC(=O)[C@H](CC(=O)O)NC(=O)[C@H](Cc2ccc(O)cc2)NC(=O)[C@H](CO)NC1=O` (HELM PEPTIDE1{[ac].R.R.R.R.C.P.L.Y.I.S.Y.D.A.V.C.R.R.R.R.[am]}$PEPTIDE1,PEPTIDE1,6:R3-16:R3$$$V2.0), for which the IC50 was determined as 216 nM at GTPase KRas [1], 12 nM on GTPase KRas [2], 2.7 nM on GTPase KRas [3] and 7.4 nM at GTPase KRas [4]. Further, the Ratio IC50 in the experiment listed under Homo sapiens [5] was 80; in the experiment filed under Homo sapiens [6], 4.

The IC50 is the concentration needed to halve the response being measured.
